SMILES	melting point [°C]
Oc1nc(-c2ccc(F)cc2)c(CCN2CCC(=Cc3cccc(F)c3)CC2)s1	140 to 142
CCOC(=O)c1cc(-c2ncc(Cl)cc2F)nn1C	117 to 118
COC(=O)c1ccc(OCC2COC(=O)N2c2ccc(Cl)cc2)cc1 (stereo not drawn)	135 to 136
CC(CCC(=O)NCCS(=O)(=O)O)C1CCC2C3C(O)CC4CC(NC(=O)CNC(=O)OC(C)(C)C)CCC4(C)C3CC(O)C12C (stereo not drawn)	150 to 155
CC(=O)OC1CSC(Oc2ccc(C)nc2-c2cccnc2)C(OC(C)=O)C1OC(C)=O (stereo not drawn)	92 to 102
COc1nc(OC)nc(Oc2ccccc2C(=O)O)n1	152
CNC(=O)N(OC)C(=O)Nc1ccccc1F	144 to 147
Cc1cc(C(C)(C)C)cc(C)c1[N+](=O)[O-]	80 to 82
CCc1cccc2c1N(CC(=O)N1CC3CCC(CC3)C1)C(=O)C(NC(=O)Nc1cccc(-c3nnn[nH]3)c1)N=C2c1ccccc1F (stereo not drawn)	226 to 232
CN(C)C1CC2=CN(S(=O)(=O)c3ccccc3)C=C3C=CC(=O)CC1=C32 (stereo not drawn)	114 to 116
Cc1ccc(S(=O)(=O)N(CCO)CCN(CCN(CCO)S(=O)(=O)c2ccc(C)cc2)S(=O)(=O)c2ccc(C)cc2)cc1	110 to 112
CS(=O)(=O)c1ccc(-n2cnc3ccc(-c4nnc(C5CC5)o4)cc32)cc1	215 to 216
O=C(c1ccco1)N1CCN(Cc2ccc(-c3cc4ncnc(Nc5ccc6[nH]ccc6c5)c4s3)cc2)CC1	167 to 174
FC(F)(F)c1ccc2c(c1)N=Cc1ccccc1O2	86 to 88
O=CCCCCCCCCCCC(=O)O	53 to 54
CC(=O)OCC1OC(n2cc(C(Br)=CI)c(=O)[nH]c2=O)C(OC(C)=O)C1OC(C)=O (stereo not drawn)	86 to 88
[O-][N+]1=C(c2ccccc2Cl)c2cc(Cl)ccc2C=CC1	196 to 197
COCCCN(C(=O)N(CCCl)N=O)C1(O)COC(OCC(C)C)C(O)C1O (stereo not drawn)	67 to 69
O=C(Nc1ccccc1)C1=C(N2CCOCC2)COC1=O	205 to 206
O=C(O)c1ccc(-c2cnc(-c3ccc(Cl)cc3)o2)cc1	268 to 270
Cc1cc(Br)n2ccnc2c1	53 to 54
CCc1c(OC)cc(C)c(C=CC(C)=CC=CC(C)=CC(=O)O)c1C	197 to 198
CCOC(=O)C=Cc1cnc(C(C)(C)C)nc1	43 to 45
CCN(C(=O)CN(C(=O)CNC(=O)Nc1cccc(C)c1)c1ccccc1)c1ccccc1	158
COC(=S)CCc1cc(C(C)(C)C)cc(C(C)(C)C)c1O	55 to 55.5

SMILES	melting point [°C]
CC(C)(O)C#Cc1ccc2c(c1)NC(=O)CC(c1cccc(C#N)c1)=N2	243
CCCCN(C(=O)CCCCC(=O)N(CCCC)C1CC(C)(C)NC(C)(C)C1)C1CC(C)(C)NC(C)(C)C1	134 to 144
COc1ccc2c(c1)c1c(n2CCc2noc(-c3ccccc3)n2)CCN(C)C1	77.5 to 79
CN(C)C(=O)c1ccccc1Sc1c[nH]c2ccccc12	194 to 196
C=CC(C)(C)c1c(C=O)c2ccc(Cl)cc2n1COCc1ccccc1	227
CC(C)Oc1ccc(-c2nc3n(c2-c2ccncc2)CCC3)cc1	148 to 150
Cc1nc2c(N)nc3ccccc3c2n1CCOCC#Cc1ccccc1	143
COc1ccc(C(=O)c2cnoc2C)cc1	78 to 79
Nc1ncnc2c1ncn2C1OC(C(O)C(=O)NC2CCCC2)C(O)C1O (stereo not drawn)	155 to 157
CC(C)N1Cc2cc(C(=O)O)ccc2N(CCN2CC=C(c3c[nH]c4cc(F)ccc34)CC2)S1(=O)=O	193 to 194
O=C(O)c1coc2ccc3ccc(O)cc3c2c1=O	294 to 296
CCN(CC)S(=O)(=O)c1cc2oc(-c3ccccc3)nc2c2ccccc12	157
CCCCCS(=O)(=O)NC(=O)/C=C/c1ccc(OCCOC)cc1Nc1ccc(C(F)(F)F)cc1	142 to 143
COC12CC(C(C)COC(=O)c3[nH]c(C)cc3C)CN(C)C1Cc1cn(C)c3cccc2c13 (stereo not drawn)	128 to 130
CC(C)Oc1ccc2nc[nH]c(=O)c2c1	206 to 208
COc1ccc(-c2ccnc3c(C(=O)c4cccs4)cnn23)cc1NC(=O)c1ccccc1	201 to 203
c1ccc(Oc2ccc(C3(Cn4cncn4)OCCCO3)cc2)cc1	129 to 130
Clc1cccc(N2CCN(Cc3ccc(-c4ccccc4)s3)CC2)c1	115
CCOCC(COCC)Oc1ccc(/C=C/C(=O)OCC)c(Oc2ncc(C(F)(F)F)cc2Cl)c1	66 to 67.5
Cc1ccccc1C=Nc1c2c(nc3ccccc13)CCCC2	160 to 162
COc1ccc(-c2nc(-c3ccc4c(c3)CCCN4C(C)=O)cs2)cc1OC	148
Cc1noc(NC(=O)c2c(O)ccc3cc(-c4cccc(O)c4)ccc23)c1C	108
ON=C1CCCCC1=Cc1ccccc1	114 to 115
O=P(O)(O)CNCCc1ccccc1	148 to 150
CC(=O)Nc1cccc(-n2ncc(=O)n(Cc3ccc(Cl)cc3F)c2=O)c1	184

SMILES	melting point [°C]
O=C(Cc1ccc2[nH]cc(CCN3C(=O)c4ccccc4C3=O)c2c1)N1CCOCC1	140 to 141
Clc1cc(CCc2ccccn2)c2oc(-c3cnc[nH]3)nc2c1	202 to 209
CS(=O)(=O)Nc1nn(CCN2CCCCC2)cc1-c1ccccc1	121
CS(=O)(=O)N=c1oc2ccccc2o1	161 to 163
CCOC(=O)C=C(C)c1ccc(C=CC=C(C)CCC=C(C)C)cc1	32 to 32.5
C[C@]1(CN2CCN(N=Cc3cc4cc(C(F)(F)F)ccc4o3)CC2)Cn2cc([N+](=O)[O-])nc2O1	190 to 192
COC(=O)C1=C(C)Nc2ccccc2NC1c1ccccc1[N+](=O)[O-] (stereo not drawn)	190 to 192
Cc1c(OCC(F)(F)F)ccnc1CSc1nc2ccccc2n1NCC(C)C	82 to 83
O=C(c1ccccc1CN1C(=O)C2(COc3cc4c(cc32)CCO4)c2ccccc21)N1CCCCC1 (stereo not drawn)	168 to 170
COC(=O)CCCc1cc2nc(Cl)ccc2n1S(=O)(=O)c1ccccc1	85 to 90
O=C(c1ccccc1)c1cnc2c(-c3cc(-c4ccccc4)cs3)cnn2c1O	277 to 290
CC(=O)NS(=O)(=O)c1cccc(NC(=O)NC2N=C(c3ccccc3F)c3ccccc3N(CC(=O)N3CC4CCC(CC4)C3)C2=O)c1 (racemic)	193 to 203
CP(C)(=O)C(O)C(N)=O (stereo not drawn)	155
C=CCNC(=O)[C@H]1N(C(=O)[C@@H](O)[C@H](Cc2ccccc2)NC(=O)c2cccc(O)c2C)CSC1(C)C	173 to 175
Cn1ncc(C(=O)N2CCCC2)c1C(=O)Nc1ccn2nc(-c3ccccc3)nc2c1	210 to 215
Cc1cc2ccc(/C=C/C(=O)OCc3ccccc3)cc2[nH]1	164 to 165
CCOC(=O)c1ccc(NCCOc2ccc(Br)c3ccccc23)cc1	126 to 127
Cc1cccc(C)c1C(=O)OCC(N)=O	106 to 108
Cc1cc(C(O)(COc2ccc(Cl)cc2)C(F)(F)F)ccc1NC(=O)c1cccc(I)c1C(=O)NC(C)C (stereo not drawn)	90 to 95
CC(=O)OCCC1CC(=O)N1 (stereo not drawn)	44 to 47
ON=C(c1ccccc1)c1cc(F)cc(F)c1	91 to 93
COc1cccc2c(Cc3nc(-c4ccccc4)co3)coc12	101 to 103
CC(C)CCn1c(=O)c2c(Cl)cc(Cl)cc2n(Cc2ccccc2)c1=O	89 to 92
N#Cc1ccc(COc2ccc(CC(NC(=O)c3cc4ccc(-c5ccc(Cl)cc5)cc4o3)C(=O)O)cc2)cc1 (stereo not drawn)	204
COc1ccc(N(Cc2ccc(C#N)cc2)n2ccnc2)cc1	207

SMILES	melting point [°C]
O=C1OC(=O)c2cc(Oc3ccc(C(F)(F)F)cc3Cl)ccc21	88 to 91
Fc1ccc(-c2cc(C(F)(F)F)n3ncc(-c4ccccn4)c3n2)cc1Cl	197
CCCCCCc1cc2c(s1)-n1c(C)nnc1CN=C2c1ccc(C)cc1C	99 to 101
CCOC(=O)C(C(=O)OCC)n1cccc1C(=O)C(Cl)(Cl)Cl	67 to 69
CC(C)(C)[Si](C)(C)Oc1ccc(C(=O)O)cc1C12CC3CC(CC(C3)C1)C2	250 to 252
CC(=O)Oc1c(C(C)C)cc(C(=O)Nc2cnc3c(C)cc(C)cc3c2-c2ccccc2Cl)cc1C(C)C	195 to 196
C=CC(c1cn(-c2ccccc2)nc1OCc1ccc(OCc2nc(-c3ccco3)oc2C)c(OC)c1)n1cncn1 (stereo not drawn)	115 to 116
NC(=O)COc1ccccc1C(=O)Nc1ccc(C(=O)N2CCCC(=O)c3ccccc32)cc1	226 to 228
Fc1ccc2[nH]c3c4ccccc4nc-3cc2c1	> 246
CN1C(=O)C(c2c[nH]c3ncccc23)=C(c2cn(C(=O)OC(C)(C)C)c3ccccc23)C1=O	180
COC(=O)c1cc(OC)c(CNC(C)=O)c(OC)c1	184
NC(=O)c1ccc(F)c2c1CC(N(CCCc1c[nH]c3ccc(Cl)cc13)C1CCC1)CO2 (stereo not drawn)	152 to 160
N#Cc1cccc(-c2ccccc2)n1	65.2 to 66.1
CCC1(CCCCl)C(=O)Nc2ccc(Cl)cc21 (stereo not drawn)	105 to 107
c1ccc(-c2nc3cnccc3o2)cc1	118 to 121
CCOCc1c2ccccc2cc2ccccc12	74 to 75
COc1cccc(-c2nc(-c3ccccc3)c3ncc(Cl)cc3n2)c1	112 to 113
O=C(COCc1ccccc1)NC(C(=O)O)c1ccccc1 (stereo not drawn)	127 to 130
Cn1c2c(ccc1=O)C(=O)CCC2	174 to 176
CC1NC(=O)NN=C1c1ccc(NCCCN)cc1 (stereo not drawn)	178 to 179
Cc1ccc2cccc(OCc3c(Cl)ccc(C=O)c3Cl)c2n1	184 to 186
COC(=O)c1cc(C(=O)NCCN2CCOCC2)cc(-n2cccc2)c1	144 to 146
O=C(O)Cc1c(C(=O)c2ccc(OC(F)(F)F)cc2)[nH]c2cc(Cl)ccc12	166 to 168

Reference: a melting point compilation (Tetko et al.; mined from patent text by program, amines drawn as free bases though some values may be those of a salt)
